The results in this text go back to PubChem BioAssay AID434987 (Southern Research Specialized Biocontainment Screening …, 2010).

The experiment deals with M. tuberculosis H37Rv growth inhibition with meropenem. The experiment in a line: dose response, H37Rv, with and without meropenem (AID 434987).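 Note: growth over 7 days at 37 °C before Alamar Blue read on day 9.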
[1] abbreviates: M. tuberculosis H37Rv growth inhibition, measured here: IC50 without meropenem.
[2] abbreviates: M. tuberculosis H37Rv growth inhibition, measured here: IC90 without meropenem.
Where [3] appears, read: measured here: IC90 with meropenem.

Calls of active or inactive are those of the source. The rule behind the calls is not given here. Some results are limits rather than exact numbers.

By IC50 is commonly meant the concentration needed to halve the response being measured. For orientation: IC90 means the concentration at which the effect reaches the 90% level.

Regarding `CCN(CC)C(=O)C1CCCN(c2ccc([N+](=O)[O-])cc2/C=N/NC(=O)c2cccc(O)c2)C1` (stereo not given), the IC50 is 48.1 µM (inactive). Further, the IC50 under setting [1] stood at 47.1 µM. Under setting [2], this compound gave an IC90 of 70.6 µM. This compound registered an IC90 under setting [3] of 55.3 µM.
For `CCc1cc2c(=O)oc(-c3ccccc3F)nc2s1`, in that order: > 100 µM (inactive), above 100 µM, above 100 µM and above 100 µM.
For `CC(=O)Nc1ccc(SCC(=O)c2cc(C)n(CC(F)(F)F)c2C)cc1`, in that order: 47.7 µM (inactive), 53.5 µM, above 100 µM and above 100 µM.
With `COc1cccc(/C=N/NC(=O)CSCC(=O)Nc2ccccc2)c1O`, the IC50 is 5.41 µM. Further, under setting [1], the IC50 is above 100 µM. For the same compound, the IC90 under setting [2] was above 100 µM. In addition, the IC90 under setting [3] is above 100 µM.
Regarding `CCN(CC)CCCNC(=O)c1c(O)c2ccccc2n(Cc2ccccc2)c1=O`, the IC50 is 12.6 µM (inactive). The compound further returned an IC50 under setting [1] of 23.2 µM. Under setting [2], this compound had an IC90 of 32.7 µM. This compound also had an IC90 under setting [3] of 13.8 µM.
For `COc1ccc([N+](=O)[O-])cc1NC(=O)c1ccc(Br)s1` the same measures were > 100 µM (inactive), above 100 µM, above 100 µM and above 100 µM.
For `O=C(CC1SC(=O)NC1=O)Oc1ccc(/C=N/NC(=O)c2ccccc2O)cc1` (stereo not given) the same measures were 6.41 µM, 41.3 µM, above 100 µM and above 100 µM.
For `Cc1ccc(S(=O)(=O)NCCCCCC(=O)Nc2ccccn2)cc1`, in that order: > 100 µM (inactive), above 100 µM, above 100 µM and above 100 µM.
Turning to `CCOc1ccc(NC(=S)Nc2cccnc2)cc1`, the IC50 was 89.5 µM (inactive). Also, the IC50 under setting [1] was above 100 µM. Under setting [2], the IC90 was above 100 µM. Under setting [3], this compound came in with an IC90 above 100 µM.
In the case of `COc1ccc(-c2csc(NC(=O)c3c(C)noc3C)n2)cc1`, the IC50 is 25.9 µM. The IC50 under setting [1] is above 100 µM. Also, the IC90 under setting [2] was above 100 µM. The IC90 under setting [3] was above 100 µM.
On to `Cc1ccc(O)c(-c2cc(-c3ccccc3F)[nH]n2)c1`, for which the IC50 was > 100 µM (inactive). The compound further yielded an IC50 under setting [1] above 100 µM. Under setting [2], the IC90 is above 100 µM. The compound further had an IC90 under setting [3] above 100 µM.
With `CC1CCc2c(sc(NC(=O)CCCn3cnc([N+](=O)[O-])n3)c2C(N)=O)C1` (stereo not given), the IC50 is 12.8 µM. Further, the IC50 under setting [1] was 32.7 µM. In addition, the IC90 under setting [2] was above 100 µM. Under setting [3], this compound came in with an IC90 of 90.4 µM.
For `O=C(C1=C[C@@H](c2ccc(Br)cc2)C[C@@H](OCc2ccc(CO)cc2)O1)N1CCN(Cc2ccc3c(c2)OCO3)CC1`, the IC50 is 79.3 µM (inactive). For the same compound, the IC50 under setting [1] was above 100 µM. The IC90 under setting [2] is above 100 µM. The IC90 under setting [3] was above 100 µM.
With `Cc1ccc(OCC(=O)Nc2ccc(-c3nc4ncccc4o3)cc2)c(C)c1`, the IC50 was > 100 µM (inactive). Under setting [1], this compound showed an IC50 above 100 µM. This compound also came in with an IC90 under setting [2] above 100 µM. Under setting [3], the IC90 is above 100 µM.
Under setting [1], `Cc1nc(/N=C(\N)NC(=O)c2ccccc2)nc2ccccc12` gave an IC50 above 100 µM. In addition, the IC90 is above 100 µM under setting [2] and above 25 µM under setting [3].
As for `CC(=O)c1sc(N/N=C\c2ccc(N(C)C)cc2)nc1C`, the IC50 is 49.9 µM (inactive). In addition, under setting [1], the IC50 was above 100 µM. In addition, the concentration for an effect of 90% (IC90) under setting [2] was above 100 µM. Under setting [3], this compound registered an IC90 above 100 µM.
As to `COc1ccc(-c2cc(=Nc3ccc(C)cc3)c3ccccc3o2)cc1`, the IC50 was 78.3 µM (inactive). For the same compound, under setting [1], the IC50 is above 100 µM. This compound also showed an IC90 under setting [2] above 100 µM. In addition, the IC90 under setting [3] is 98.3 µM.
`CCOc1ccc2cc(S(=O)(=O)N3CCCCC3)ccc2c1`: the IC50 is > 100 µM (inactive). Also, under setting [1], the IC50 is above 100 µM. The same compound showed an IC90 under setting [2] above 100 µM. The IC90 under setting [3] was above 100 µM.
Turning to `O=C(c1ccccc1)N1CCC(CC2CC(c3cccc(Br)c3)=NO2)(C(=O)NCC2CCCCC2)CC1` (stereo not given), the IC50 was 46.8 µM (inactive). This compound displayed an IC50 under setting [1] above 100 µM. This compound also came in with an IC90 under setting [2] above 100 µM. In addition, the IC90 under setting [3] is above 100 µM.
In the case of `O=C1/C(=C/C=C/c2ccco2)SC(=S)N1c1ccc(O)cc1`, the IC50 is > 100 µM (inactive). This compound displayed an IC50 under setting [1] above 100 µM. This compound yielded an IC90 under setting [2] above 100 µM. Under setting [3], this compound showed an IC90 above 100 µM.
Turning to `CCOC(=O)CSc1nnc(NC(=O)c2cccc(S(=O)(=O)N3CCCCC3)c2)s1`, the IC50 was 23.8 µM (inactive). Under setting [1], this compound yielded a half-maximal inhibitory concentration (IC50) of 41 µM. The IC90 under setting [2] is above 100 µM. This compound displayed an IC90 under setting [3] above 100 µM.
For the compound `COC(=O)Cn1nc(-c2ccccc2)c2ccccc21`, the IC50 was > 100 µM (inactive). Besides, the IC50 under setting [1] is above 100 µM. Under setting [2], this compound returned an IC90 above 100 µM. Further, the IC90 under setting [3] is above 100 µM.
For the compound `COc1ccc(/C=N/Nc2nc(-c3ccc(C)cc3)c(NC(C)=O)s2)cc1`, the concentration for half-maximal inhibition (IC50) was 24.2 µM. Also, the IC50 under setting [1] is above 100 µM. For the same compound, the IC90 under setting [2] was above 100 µM. The compound also showed an IC90 under setting [3] above 100 µM.
Regarding `Cc1cccc(OCc2nc(-c3ccccn3)n[nH]2)c1`, the IC50 was 3.43 µM. This compound returned an IC50 under setting [1] of 22.5 µM. In addition, under setting [2], the IC90 amounted to 25.6 µM. Under setting [3], the IC90 is 7.37 µM.
For `O=c1cc(C(F)(F)F)c2sc(N3CCCCC3)nc2[nH]1`, in that order: 45.4 µM (inactive), above 100 µM, above 100 µM and 49.3 µM.
With `Cc1oc(C(C)(C)C)cc1C(=O)Nc1ccc2c(c1)OCCO2`, the IC50 was > 100 µM (inactive). The compound further had an IC50 under setting [1] above 100 µM. In addition, the IC90 under setting [2] is above 100 µM. Moreover, the IC90 under setting [3] was above 100 µM.
Consider `CCOc1ccc2nc(N3CCC(C(=O)NC4CCCCC4)CC3)sc2c1`, for which the IC50 was > 100 µM (inactive). Under setting [1], this compound gave an IC50 above 100 µM. The compound further returned an IC90 under setting [2] above 100 µM. For the same compound, the IC90 under setting [3] is above 100 µM.
Turning to `O=C(NNC1=C(C(=O)C(F)(F)F)CCC1)c1cccc(O)c1`, the IC50 was 68 µM (inactive). Besides, the IC50 under setting [1] was above 100 µM. For the same compound, the IC90 under setting [2] is above 100 µM. Under setting [3], this compound displayed an IC90 above 100 µM.
For the compound `CCCCCc1nnc(NC(=O)C2COc3ccccc3O2)s1` (stereo not given), the IC50 is 62.5 µM (inactive). The compound also returned an IC50 under setting [1] above 100 µM. The IC90 under setting [2] was above 100 µM. Further, the IC90 under setting [3] was above 100 µM.
As for `O=C(Nc1ccc(Cl)cc1)C1CC2CCCC(C1)C2=O` (stereo not given), the IC50 is > 100 µM (inactive). In addition, under setting [1], the IC50 was above 100 µM. In addition, the IC90 under setting [2] is above 100 µM. For the same compound, under setting [3], the IC90 is above 100 µM.
`C=CCSc1nnc2c(n1)OC(c1c(C)[nH]n(-c3ccccc3)c1=O)Nc1ccccc1-2` (stereo not given): the IC50 was 28 µM. The compound also gave an IC50 under setting [1] above 100 µM. Also, under setting [2], the IC90 was above 100 µM. The IC90 under setting [3] was above 100 µM.
Take `COc1cc(NC(=O)c2ccc(Cl)cc2)c(OC)cc1NC(=O)CN1CCOCC1`: the IC50 is > 100 µM (inactive). The compound also yielded an IC50 under setting [1] above 100 µM. Under setting [2], this compound had an IC90 above 100 µM. Besides, under setting [3], the IC90 was above 100 µM.
For `Cn1c(/C=C/c2ccc(Cl)cc2)nc2ccccc2c1=O`, the IC50 was 52.1 µM (inactive). Under setting [1], this compound showed an IC50 above 100 µM. Moreover, under setting [2], the IC90 is above 100 µM. This compound also registered an IC90 under setting [3] above 100 µM.
In the case of `Cc1onc(-c2ccccc2)c1C(=O)Nc1ccc(-c2nnc3n2CCCCC3)cc1`, the IC50 was 23.8 µM (inactive). The IC50 under setting [1] was 29.3 µM. Also, the IC90 under setting [2] amounted to 71.2 µM. Besides, the IC90 under setting [3] amounted to 38.6 µM.
On to `COc1ccc(NC(=O)CSc2nc(N)c(C(=O)Nc3ccc(N(C)C)cc3)s2)cc1`, for which the IC50 was 22.8 µM. This compound also showed an IC50 under setting [1] above 100 µM. Moreover, the IC90 under setting [2] is above 100 µM. Under setting [3], the IC90 was above 100 µM.
With `Cc1ccc(CN2CCSc3ccc(C(=O)NC4CCN(Cc5ccccc5)CC4)cc32)cc1`, the IC50 is > 100 µM (inactive). Under setting [1], this compound registered an IC50 above 100 µM. This compound also gave an IC90 under setting [2] above 100 µM. The IC90 under setting [3] was above 100 µM.
In the case of `CCSc1nnc(NC(=O)CSc2nccn2-c2cccc(C)c2)s1`, the IC50 was > 100 µM (inactive). The compound also had an IC50 under setting [1] above 100 µM. In addition, under setting [2], the IC90 was above 100 µM. Under setting [3], this compound yielded an IC90 above 100 µM.
For the compound `Cc1ccccc1OCC(=O)N/N=C/c1cccc(Oc2ccc([N+](=O)[O-])cc2[N+](=O)[O-])c1`, the IC50 was 1.14 µM. Also, the IC50 under setting [1] was 4.24 µM. Also, the IC90 under setting [2] came out at 47.8 µM. Under setting [3], the IC90 came out at 5.4 µM.
For `CCN(CC)C(=O)C1CCCN(c2ccc([N+](=O)[O-])cc2/C=N/NC(=O)c2cccc([N+](=O)[O-])c2)C1` (stereo not given) the same measures were > 100 µM (inactive), above 100 µM, above 100 µM and above 100 µM.
For `CCOC(=O)Cn1c(C)cc(=O)c2cccc(C)c21` the same measures were 26.4 µM, above 100 µM, above 100 µM and above 100 µM.
For the compound `CCOC(=O)c1sc(NC(=O)Nc2ccc(Cl)cc2)cc1C`, the IC50 was > 100 µM (inactive). Further, the IC50 under setting [1] is above 100 µM. Under setting [2], this compound displayed an IC90 above 100 µM. Moreover, the IC90 under setting [3] was above 100 µM.
With `O=S1(=O)CCO[C@H]2Cc3ccccc3[C@H]2N1Cc1ccc(F)cc1`, the IC50 is > 100 µM (inactive). The same compound displayed an IC50 under setting [1] above 100 µM. For the same compound, the IC90 under setting [2] was above 100 µM. Under setting [3], this compound gave an IC90 above 100 µM.
For the compound `O=C(OCC(=O)N(Cc1ccccc1)C1CCS(=O)(=O)C1)c1cc2c(s1)CCCC2` (stereo not given), the IC50 is 90.7 µM (inactive). The IC50 under setting [1] worked out at 94.2 µM. Under setting [2], this compound yielded an IC90 above 100 µM. This compound also came in with an IC90 under setting [3] above 100 µM.
As to `O=C(CSc1nnc(COc2ccccc2)o1)N1CCN(c2ccccc2)CC1`, the IC50 is > 100 µM (inactive). This compound also yielded an IC50 under setting [1] above 100 µM. Under setting [2], this compound had an IC90 above 100 µM. This compound also displayed an IC90 under setting [3] above 100 µM.
